Data published in ChEMBL document CHEMBL3992492, “Sulfoximines from a Medicinal Chemist's Perspective: Physicochemical and in vitro Parameters Relevant for Drug Discovery” (Eur J Med Chem, 2017).
In brackets after ≈: the same amount, converted by molar mass.

Legend:
[1] = physchem; conditions: octanol/water, pH 10
[2] = physchem; conditions: acetonitrile/water mixture
Description: Solubility of the compound in acetonitrile/water mixture at 10 mM measured after 24 by HPLC-UV method

[3] = physchem; conditions: aqueous
[4] = Apparent partition coefficient, log P of the compound in n-octanol/aqueous mixture by potentiometric titration method; type: physicochemical
[5] = in vitro; conditions: human, liver microsomes
Description: Half life in human liver microsomes at 1 uM in presence of NADPH by LC-MS/MS method

[6] = in vitro; conditions: human, liver microsomes; remark: listed apart in the source
[7] = in vitro; conditions: PAMPA, pH 7.4
Description: Apparent permeability of the compound at pH 7.4 by PAMPA

[8] = Drug degradation in pH <1 HCl after 7 days by HPLC method
[9] = Drug degradation in pH >10 NH3 after 7 days by HPLC method

Compound	logP [1]	solubility at 10000 µM [2] [µg/mL]	solubility thermodynamic [3] [µg/mL]	logP [4]	half-life at 1 µM [5] [h]	hepatic extraction ratio at 1 µM [6]	Papp [7] [×10⁻⁶ cm/s]	Drug degradation [8] [%]	Drug degradation [9] [%]
CS(=O)(=O)c1ccc(C(F)(F)F)cc1	1.5	> 47	300 (≈ 1340 µM)						
O=S1(=Nc2ccc(F)cc2)CCCCC1		> 46	> 1000	0.7	2	0.25	9.5		
CS(=O)(=Nc1ccc(C(F)(F)F)cc1)C1CCOCC1 (centres undefined)		46 (≈ 150 µM)		2.5	> 2.17	< 0.23	9.6		
C[S+]([O-])Cc1ccc(C(F)(F)F)cc1 (centres undefined)	-0.5	> 51	4300 (≈ 19300 µM)		1.83	0.25	6.3		
CNS(C)(=O)=Nc1ccc(C(F)(F)F)cc1 (centres undefined)	1.6	> 54	800 (≈ 3170 µM)		> 2.17	< 0.23	5		
CN(C)S(=O)(=O)c1ccc(C(F)(F)F)cc1	2.7	47 (≈ 186 µM)	90 (≈ 355 µM)						
C[S@](=O)(=Nc1ccc(C(F)(F)F)cc1)c1ccccc1		20 (≈ 66.8 µM)		3.7	> 2.17	< 0.23	2.5		
CC(=O)N(C)c1ccc(C(F)(F)F)cc1	0.8	> 52	1300 (≈ 5990 µM)				9.7		
CS(=O)(=O)Cc1ccc(C(F)(F)F)cc1	1.3		400 (≈ 1680 µM)						
C[S@@](=O)(=Nc1ccc(C(F)(F)F)cc1)c1ccccc1		17 (≈ 56.8 µM)		3.7	> 2.17	< 0.23	3.5		
Cn1cc(N=S2(=O)CCCCC2)cn1		39 (≈ 183 µM)		-3.9	> 2.17	< 0.23	3.2		
CNC(=O)c1ccc(C(F)(F)F)cc1	0.5		200 (≈ 984 µM)		> 2.17	< 0.23	5.7		
O=S1(=Nc2ccc(C(F)(F)F)cc2)CCC1		48 (≈ 193 µM)		2.5	> 2.17	< 0.23	9.6		
CS(C)(=N)=NC(=O)c1ccc(C(F)(F)F)cc1	0.4		8100 (≈ 30700 µM)		> 2.17	< 0.23	9.2	> 90	34
CC(C)(C)OC(=O)Nc1ccc(C(F)(F)F)cc1	4.4	< 1	< 1				0.8		
CS(=O)(=Nc1ccc(C(F)(F)F)cc1)c1cccnc1 (centres undefined)		47 (≈ 157 µM)		2.5	> 2.17	< 0.23	8.4		
O=S1(=Nc2ccc(C(F)(F)F)cc2)CCCC1		50 (≈ 190 µM)	6000 (≈ 22800 µM)	2.4	1.83	0.26	8.7		
C[S+]([O-])c1ccc(C(F)(F)F)cc1 (centres undefined)	-0.3	> 46	11100 (≈ 53300 µM)						
O=S1(=Nc2ccccc2)CCCCC1		37 (≈ 177 µM)		-0.1	> 2.17	< 0.23	9.5		

Compound	logP [1]	solubility at 10000 µM [2] [µg/mL]	solubility thermodynamic [3] [µg/mL]	logP [4]	half-life at 1 µM [5] [h]	hepatic extraction ratio at 1 µM [6]	Papp [7] [×10⁻⁶ cm/s]	Drug degradation [8] [%]	Drug degradation [9] [%]
CC(C)(C)S(C)(=O)=Nc1ccc(C(F)(F)F)cc1 (centres undefined)		22 (≈ 78.8 µM)		3.1					
CS(=O)(=Nc1ccc(C(F)(F)F)cc1)c1ccncc1 (centres undefined)		44 (≈ 147 µM)		2.6	0.933	0.41	6.2		
CN(c1ccc(C(F)(F)F)cc1)S(C)(=O)=O	2.5	46 (≈ 182 µM)	200 (≈ 790 µM)						
N#Cc1ccc(N=S2(=O)CCCCC2)cc1		45 (≈ 192 µM)		1.1	> 2.17	< 0.23	7.9		
O=S1(=Nc2cc(C(F)(F)F)cc(C(F)(F)F)c2)CCCCC1		< 1		4	0.1	0.87	3.3		
CS(=O)(=O)Oc1ccc(C(F)(F)F)cc1	4.3		300 (≈ 1250 µM)						
CC(C)(C)NC(=O)Nc1ccc(C(F)(F)F)cc1	3.4	< 1	20 (≈ 76.8 µM)		> 2.17	< 0.23	5.1		
CCS(C)(=O)=Nc1ccc(C(F)(F)F)cc1 (centres undefined)		> 51		2	> 2.17	< 0.23	7.7		
CC(=O)Nc1ccc(C(F)(F)F)cc1	1.8	10 (≈ 49.2 µM)	100 (≈ 492 µM)		1	0.39	6		
COc1ccc(N=S2(=O)CCCCC2)cc1		> 51	900 (≈ 3760 µM)	-0.1	> 2.17	< 0.23	9.1		
CC(C)(C)OC(=O)c1ccc(C(F)(F)F)cc1	4.8	7 (≈ 28.4 µM)	20 (≈ 81.2 µM)						
O=S1(=Nc2ccccc2Cl)CCCCC1		> 50	500 (≈ 2050 µM)	2	0.467	0.58	12		
CC(C)(C)NC(=O)c1ccc(C(F)(F)F)cc1	2.6	14 (≈ 57.1 µM)	10 (≈ 40.8 µM)		> 2.17	< 0.23	7.1		
CN(C)S(C)(=O)=Nc1ccc(C(F)(F)F)cc1 (centres undefined)	2.4	41 (≈ 154 µM)	70 (≈ 263 µM)		0.7	0.48	7.6		
CN=S(=O)(NC)c1ccc(C(F)(F)F)cc1 (centres undefined)	0.4		1200 (≈ 4760 µM)		> 2.17	< 0.23	9.8	< 10	< 10
NC(=O)c1ccc(C(F)(F)F)cc1	0.3	> 44	300 (≈ 1590 µM)						
CN=S(=O)(c1ccc(C(F)(F)F)cc1)N(C)C (centres undefined)	1.5		1200 (≈ 4510 µM)		> 2.17	< 0.23	9.5	< 10	10
CS(=O)(=Nc1ccc(C(F)(F)F)cc1)C1CC1 (centres undefined)		40 (≈ 152 µM)		2.3	> 2.17	< 0.23	7.8		
O=S1(=Nc2ccc(C(F)(F)F)cc2)CCOCC1		> 57	300 (≈ 1070 µM)	2.7	> 2.17	< 0.23	8		
